Reference: patent US20170057954A1, “SUBSTITUTED IMIDAZO[1,2-A]PYRIDINECARBOXAMIDES AND THEIR USE” (Bayer Pharma Aktiengesellschaft, priority 2014, published 2017)

What follows are compounds tested on recombinant guanylate cyclase reporter cell line (assay: Effect on a recombinant guanylate cyclase reporter cell line). Settings: in some cases mean values for individual determinations, read-out: MEC (minimum effective concentration).
Format: cell-based
Protocol: B-2. Effect on a Recombinant Guanylate Cyclase Reporter Cell Line
The cellular activity of the compounds according to the invention is determined using a recombinant guanylate cyclase reporter cell line, as described in F. Wunder et al., Anal. Biochem. 339, 104-112 (2005).
Representative MEC values (MEC=minimum effective concentration) for the compounds of the invention are shown in the table below (in some cases as mean values for individual determinations): […]
Work on `Cc1cc(OCc2c(F)cccc2F)c2nc(C)c(C(=O)NNC3CCCCC3)n2c1` [Example 74] yielded a minimal effective concentration of 3 µM. `Cc1cc(OCc2c(F)cccc2F)c2nc(C)c(C(=O)NOC3COC3)n2c1` [Example 6] gave a minimal effective concentration of 1 µM. `Cc1cc(C)cc(NNC(=O)c2c(C)nc3c(OCc4c(F)cccc4F)cc(C)cn23)c1` [Example 53] was tested, and the minimal effective concentration was 1 µM. `Cc1nc2c(OCC3CCCCC3)cccn2c1C(=O)NN1CCOCC1` [Example 15] was tested, and the minimal effective concentration was 1 µM. With `Cc1cc(OCc2c(F)cccc2F)c2nc(C)c(C(=O)NNC3CS(=O)(=O)CC3O)n2c1` (stereo not drawn) [Example 73] the minimal effective concentration was 3 µM. Work on `Cc1cc(OCc2c(F)cccc2F)c2nc(C)c(C(=O)NNC3CS(=O)(=O)CC3C)n2c1` (stereo not drawn) [Example 72] yielded a minimal effective concentration of 3 µM. `Cc1cc(OCc2c(F)cccc2F)c2nc(C)c(C(=O)NNCc3ccccc3)n2c1` [Example 67] was tested, and the minimal effective concentration was 1 µM. `Cc1cc(OCc2c(F)cccc2F)c2nc(C)c(C(=O)NOC[C@H](O)CO)n2c1` [Example 11, 8-[(2,6-Difluorobenzyl)oxy]-N-{[(2R)-2,3-dihydroxypropyl]oxy}-2,6-dimethylimidazo[1,2-a]pyridine-3-carboxamide] gave a minimal effective concentration of 1 µM. Work on `Cc1cc(OCc2c(F)cccc2F)c2nc(C)c(C(=O)NNC(=O)CN)n2c1` [Example 75, N′-(Aminoacetyl)-8-[(2,6-difluoroenzyl)oxy]-2,6-dimethylimidazo[1,2-a]pyridine-3-carbohydrazide] yielded a minimal effective concentration of 1 µM. With `Cc1cc(OCc2c(F)cccc2F)c2nc(C)c(C(=O)NOCC(N)C(C)C)n2c1` (stereo not drawn) [Example 9] the minimal effective concentration was 1 µM. `CONC(=O)c1c(C)nc2c(OCc3c(F)cccc3F)cc(C)cn12` [Example 29] gave a minimal effective concentration of 1 µM. `Cc1cc(OCc2c(F)cccc2F)c2nc(C)c(C(=O)NNC(C)(C)C)n2c1` [Example 38] was tested, and the minimal effective concentration was 0.3 µM. With `CSCCNNC(=O)c1c(C)nc2c(OCc3c(F)cccc3F)cc(C)cn12` [Example 66] the minimal effective concentration was 3 µM. With `Cc1cc(OCc2c(F)cccc2F)c2nc(C)c(C(=O)NNc3cccc(C(F)(F)F)c3)n2c1` [Example 45] the minimal effective concentration was 0.3 µM. `Cc1cc(OCc2c(F)cccc2F)c2nc(C)c(C(=O)NOCC3CC3)n2c1` [Example 77, N-(Cyclopropylmethoxy)-8[(2,6-difluorobenzyl)oxy]-2,6-dimethylimidazo[1,2-a]pyridine-3-carboxamide] showed a minimal effective concentration of 0.3 µM. Compound `Cc1cc(OCc2c(F)cccc2F)c2nc(C)c(C(=O)NNc3nnc(C(C)(C)C)s3)n2c1` [Example 35] has a minimal effective concentration of 3 µM. In the case of `Cc1cc(OCc2c(F)cccc2F)c2nc(C)c(C(=O)NNC(=O)C3CCCC3)n2c1` [Example 31], the minimal effective concentration is reported as 0.3 µM. Compound `Cc1cc(OCc2c(F)cccc2F)c2nc(C)c(C(=O)NNCC(F)(F)F)n2c1` [Example 41] has a minimal effective concentration of 0.3 µM. Compound `C=CCONC(=O)c1c(C)nc2c(OCc3c(F)cccc3F)cc(C)cn12` [Example 28] has a minimal effective concentration of 0.3 µM. Work on `Cc1cc(OCc2c(F)cccc2F)c2nc(C)c(C(=O)NOCC3CCCN3)n2c1` (stereo not drawn) [Example 8] yielded a minimal effective concentration of 3 µM. `Cc1cc(OCc2c(F)cccc2F)c2nc(C)c(C(=O)NNc3ccc(C(C)(C)C)cc3)n2c1` [Example 47] showed a minimal effective concentration of 3 µM. Compound `Cc1cc(OCc2c(F)cccc2F)c2nc(C)c(C(=O)NNC(C)C)n2c1` [Example 69] has a minimal effective concentration of 10 µM. With `Cc1cc(OCc2c(F)cccc2F)c2nc(C)c(C(=O)NNCCc3ccccc3)n2c1` [Example 49] the minimal effective concentration was 1 µM. `Cc1cc(OCc2c(F)cccc2F)c2nc(C)c(C(=O)NNC3CCCC3)n2c1` [Example 64] showed a minimal effective concentration of 3 µM. Work on `Cc1cc(OCc2c(F)cccc2F)c2nc(C)c(C(=O)NOC(C)c3ccccc3)n2c1` (racemic) [Example 78, rac-8-[(2,6-Difluorobenzyl)oxy]-2,6-dimethyl-N-(1-phenylethoxy)imidazo[1,2-a]pyridine-3-carboxamide] yielded a minimal effective concentration of 1 µM. `CCCCNNC(=O)c1c(C)nc2c(OCc3c(F)cccc3F)cc(C)cn12` [Example 63] showed a minimal effective concentration of 3 µM. Compound `CCOC(=O)CNNC(=O)c1c(C)nc2c(OCc3c(F)cccc3F)cc(C)cn12` [Example 68] has a minimal effective concentration of 1 µM. Compound `Cc1cc(OCc2c(F)cccc2F)c2nc(C)c(C(=O)NNc3ccc(OC(F)(F)F)cc3)n2c1` [Example 48] has a minimal effective concentration of 1 µM. `COc1ccc(F)c(COc2cc(C)cn3c(C(=O)NN4CCOCC4)c(C)nc23)c1F` [Example 25] was tested, and the minimal effective concentration was 10 µM. Compound `CCCc1nc2c(OCc3c(F)cccc3F)cc(C)cn2c1C(=O)NN1CCOCC1` [Example 17] has a minimal effective concentration of 10 µM. Compound `Cc1cc(OCc2c(F)cccc2F)c2nc(C)c(C(=O)NOCC(=O)N3CCN(c4ccccc4)CC3)n2c1` [Example 5] has a minimal effective concentration of 10 µM. `Cc1cc(OCc2c(F)cccc2F)c2nc(C)c(C(=O)NNC(=O)c3nccs3)n2c1` [Example 50] showed a minimal effective concentration of 1 µM. `Cc1cc(OCc2c(F)cccc2F)c2nc(C)c(C(=O)NNc3ccc4ccccc4c3)n2c1` [Example 34] gave a minimal effective concentration of 1 µM. Compound `Cc1cc(OCc2c(F)cccc2F)c2nc(C)c(C(=O)NN3CCC(C(F)(F)F)C3)n2c1` (stereo not drawn) [Example 79, 8-[(2,6-Difluorobenzyl)oxy]-2,6-dimethyl-N-[3-(trifluoromethyl)pyrrolidin-1-yl]imidazo[1,2-a]pyridine-3-carboxamide] has a minimal effective concentration of 0.1 µM. Work on `Cc1cc(OCc2c(F)cccc2F)c2nc(C)c(C(=O)NNC3CCCC3O)n2c1` (stereo not drawn) [Example 70] yielded a minimal effective concentration of 0.3 µM. `O=C(NOCCO)c1cnc2c(OCc3c(F)cccc3F)cccn12` [Example 14] was tested, and the minimal effective concentration was 10 µM. For `Cc1cc(OCc2c(F)cccc2F)c2nc(C)c(C(=O)NNC(=O)C3CC3)n2c1` [Example 60], the minimal effective concentration was 1 µM. `Cc1cc(OCc2c(F)cccc2F)c2nc(C)c(C(=O)NNc3cccc(Br)c3)n2c1` [Example 54] showed a minimal effective concentration of 0.3 µM. For `Cc1cc(OCc2c(F)cccc2F)c2nc(C)c(C(=O)NNC3CCS(=O)(=O)C3)n2c1` (stereo not drawn) [Example 71], the minimal effective concentration was 1 µM. With `Cc1cc(OCc2c(F)cccc2F)c2nc(C)c(C(=O)NOCC(F)(F)F)n2c1` [Example 81, 8-[(2,6-Difluorobenzyl)oxy]-2,6-dimethyl-N-(2,2,2-trifluoroethoxy)imidazo[1,2-a]pyridine-3-carboxamide] the minimal effective concentration was 0.65 µM. For `Cc1cc(OCc2c(F)cccc2F)c2nc(C)c(C(=O)NN(C)c3ccccc3)n2c1` [Example 51], the minimal effective concentration was 0.1 µM. Compound `Cc1cc(OCc2c(F)cccc2F)c2nc(C)c(C(=O)NNc3cc(Cl)c(C)cc3C)n2c1` [Example 58] has a minimal effective concentration of 0.3 µM. For `O=C(NN1CCOCC1)c1cnc2c(OCc3c(F)cccc3F)cccn12` [Example 23], the minimal effective concentration was 10 µM. `Cc1cc(OCc2c(F)cccc2F)c2nc(C)c(C(=O)NNc3cnc4ccccc4n3)n2c1` [Example 56] showed a minimal effective concentration of 1 µM. Work on `Cc1cc(OCc2c(F)cccc2F)c2nc(C)c(C(=O)NNC(=O)CN(C)C)n2c1` [Example 37] yielded a minimal effective concentration of 0.1 µM. With `CCc1nc2c(OCc3c(F)cccc3F)cc(C)cn2c1C(=O)NN1CCOCC1` [Example 20] the minimal effective concentration was 1 µM. `Cc1cc(OCc2c(F)cccc2F)c2nc(C)c(C(=O)NOCc3ccccc3C#N)n2c1` [Example 59] was tested, and the minimal effective concentration was 1 µM. `Cc1cc(OCc2c(F)ccc(F)c2F)c2nc(C)c(C(=O)NN3CCOCC3)n2c1` [Example 12, 2,6-Dimethyl-N-(morpholin-4-yl)-8-[(2,3,6-trifluorobenzyl)oxy]imidazo[1,2-a]pyridine-3-carboxamide] showed a minimal effective concentration of 1 µM. For `Cc1cc(OCc2c(F)cccc2F)c2nc(C)c(C(=O)NNc3ccc(F)cc3)n2c1` [Example 55], the minimal effective concentration was 0.1 µM. Work on `Cc1cc(OCc2c(F)cccc2F)c2nc(C)c(C(=O)NNc3ccc(Cl)cc3)n2c1` [Example 46] yielded a minimal effective concentration of 0.1 µM. Compound `Cc1cc(OCc2c(F)cccc2F)c2nc(C)c(C(=O)NN3CCN(CCO)CC3)n2c1` [Example 30] has a minimal effective concentration of 1 µM. Work on `Cc1cc(OCc2c(F)cccc2F)c2nc(C)c(C(=O)NNC3CCS(=O)(=O)CC3)n2c1` [Example 80, 8-[(2,6-Difluorobenzyl)oxy]-N′-(1,1-dioxidotetrahydro-2H-thiopyran-4-yl)-2,6-dimethylimidazo[1,2-a]pyridine-3-carbohydrazide] yielded a minimal effective concentration of 2 µM. `COCCC(=O)NNC(=O)c1c(C)nc2c(OCc3c(F)cccc3F)cc(C)cn12` [Example 33] showed a minimal effective concentration of 0.3 µM. `Cc1cc(OCc2c(F)cccc2F)c2nc(C)c(C(=O)NNc3cccc(Oc4ccccc4)c3)n2c1` [Example 36] showed a minimal effective concentration of 10 µM. `CCCCCCC(C)NNC(=O)c1c(C)nc2c(OCc3c(F)cccc3F)cc(C)cn12` (stereo not drawn) [Example 42] was tested, and the minimal effective concentration was 3 µM. `Cc1cc(OCc2c(F)cccc2F)c2nc(C)c(C(=O)NNc3ccnc4c(F)cccc34)n2c1` [Example 57] showed a minimal effective concentration of 1 µM. Work on `CCCCCCC(CCC)NNC(=O)c1c(C)nc2c(OCc3c(F)cccc3F)cc(C)cn12` (stereo not drawn) [Example 44] yielded a minimal effective concentration of 3 µM. `Cc1cc(OCc2c(F)cccc2F)c2nc(C)c(C(=O)NNCc3csc(C)n3)n2c1` [Example 65] was tested, and the minimal effective concentration was 1 µM. `Cc1cc(OCc2c(F)cccc2F)c2nc(C)c(C(=O)NOCCN(C)C)n2c1` [Example 2] showed a minimal effective concentration of 1 µM. `COc1cc(OCc2c(F)cccc2F)c2nc(C)c(C(=O)NN3CCOCC3)n2c1` [Example 21] gave a minimal effective concentration of 3 µM. `CCNNC(=O)c1c(C)nc2c(OCc3c(F)cccc3F)cc(C)cn12` [Example 61] gave a minimal effective concentration of 10 µM. `Cc1cc(OCc2c(F)cccc2F)c2nc(C)c(C(=O)NNCC(C)C)n2c1` [Example 27, 8-[(2,6-Difluorobenzyl)oxy]-N′-isobutyl-2,6-dimethylimidazo[1,2-a]pyridine-3-carbohydrazide] was tested, and the minimal effective concentration was 0.3 µM. `Cc1cccc(NNC(=O)c2c(C)nc3c(OCc4c(F)cccc4F)cc(C)cn23)c1` [Example 39] was tested, and the minimal effective concentration was 0.3 µM.
